Source: patent publication US20040197855A1, “Test system for determining gene toxicities” (priority 2001, published 2004)

Experiments:
[1] = tested on: Salmonella typhimurium; conditions: cited from earlier work
[2] = tested on: mice; conditions: cited from earlier work
[3] = tested on: rats; conditions: cited from earlier work
[4] = tested on: yeast and mammalian cells; conditions: cited from earlier work
[5] = tested on: GalER-VP; assay: Estradiol-inducible expression of I-SceI meganuclease in KMV cells; assay type: cell-based, human; conditions: KMV clones with genomic pGC-Sce; Gal4 recognition sequence promoter
Description: In order to achieve controlled meganuclease expression because of the antiproliferative effect of DSBs, the extremely reliable, β-estradiol-inducible expression system was selected according to a preferred embodiment of the invention (Braselmann, S. et al. (1993) Proc. Natl. Acad. Sci. USA 90: 1657-1661; Dudenhöffer, C. (1999) Oncogene 18: 5773-5784). The expression system couples the so-called Gal4ER transcription factor to an expression cassette controlled by a Gal4ER-responsive promoter (compare FIG. 2). Gal4ER represents a fusion protein of the DNA binding domain of the Gal4 transcription factor with the strong, viral VP16 transactivator domain and a β-estradiol binding domain of the human β-estradiol receptor, making Gal4ER functionally inducible as transcription factor by β-estradiol. This principle of conditional expression permits an inducible increase in protein expression by at least one order of magnitude. […] Inducible I-SceI expression was detected in Western blot experiments. […]

SMILES	result in the Ames assay [1]	tumours in mice [2]	tumours in rats [3]	recombination events leading to deletions [4]	lowest concentration for complete promoter induction [5]
Cc1ccccc1N [o-toluidine]	negative	cause tumours	cause tumours	triggered	
C[C@]12CC[C@@H]3c4ccc(O)cc4CC[C@H]3[C@@H]1CC[C@@H]2O [β-estradiol]					50 nM
